Source: patent US10827753B2, “Compositions and methods for controlling nematodes” (Monsanto Technology LLC, priority 2007, dated 2020)
Read-outs that look alike come from different tables or passages of the source.

Tests used:
[1] = test system: CD-1/Swiss derived albino mice; format: in vivo; details: for mortality, signs of gross toxicity and behavioral changes: three female mice, observed up to 14 days
Experimental: Acute oral toxicity testing was performed in mice in accordance with test method P203.UDP, as administered by Eurofins/Product Safety Laboratories (Dayton, N.J.). CD-1/Swiss derived albino mice were obtained and group housed in suspended solid bottom caging. The mice were fed rodent chow and filtered tap water was supplied ad libitum. Following acclimation to the laboratory setting, a group of animals was fasted overnight by removing food from the cages. After the fasting period, three female mice were selected based on vitality and initial body weights. The individual compound doses were calculated from these body weights.
The test substance was prepared as a 1% (50 mg/kg) or 5% (500 mg/kg) weight to weight (w/w) mixture in a 0.5% w/w solution of carboxymethylcellulose (CMC) in distilled water. A tissue homogenizer was used to create a homogeneous mixture. A dose of 50 or 500 mg/kg was administered to three healthy mice per dose level by oral intubation using a ball-tipped gavage needle attached to a syringe. After administration, the animals were returned to their cages, and feed was replaced immediately after dosing.
Body weights were recorded prior to initiation and on Days 7 and 14 or a soon as possible after death.

[2] = test system: caspase-3 in rat hepatoma derived H4IIE cells; test: Caspase-3 activity (DEVD-AMC) after compound exposure in H4IIE cells; format: cell-based; details: concentrations up to 300 μM
Experimental: Caspase 3 cleaves the tetrapeptide between D and AMC, thus releasing the fluorogenic […] AMC. Following the test article exposure to cells in 96-well plates, medium was aspirated from plates and PBS added to each well. Plates were stored at −80° C. to lyse cells and store samples until further analysis. On the day of analysis, plates were removed from freezer and thawed. Caspase buffer with fluorescent substrate was added to each well and incubated at room temperature for one hour. AMC release was measured in a spectrofluorometer at an excitation wavelength of 360 nm and an emission wavelength of 460 nm. Values are expressed as relative fluorescent units (RFU).

[3] = test system: Meloidogyne incognita (RKN); test: Seed treatment test of root knot nematode on cucumber plants; format: in vivo; details: 20 mg ai/gram seed, cucumber seeds
Experimental: For a given concentration the chemical is dissolved in 500 ul of acetone and one gram of cucumber seed (RKN test) or soybean seed (SCN test) is added (e.g., 20 mg active ingredient in 500 ul acetone plus 1 gram of seed). The seed solutions are agitated until all seeds were thoroughly covered with the chemical solution. The acetone is then allowed to evaporate by air drying the seeds. The seeds are planted in 2-inch pots containing sandy soil and then the pots are inoculated with 1000 Meloidogyne incognita (RKN) or 1000 Heterodera glycines (SCN) eggs per pot three days after planting. Plants are rated for galling 14 days after egg inoculation for RKN or 28 days after egg inoculation for SCN.

[4] = test system: sting (Belonolaimus longicaudatus) nematodes; test: Sting nematode bench top soil assay; format: in vivo
Experimental: Populations of sting (Belonolaimus longicaudatus) nematodes are maintained on St. Augustine turf grass on soil in 15-cm pots. At test initiation the turf is removed from the pots and the soil containing nematode eggs, juveniles, and adults is subdivided into pots each containing a volume of 125 cm^3′ The compounds to be tested are dissolved in 3 ml of acetone using 3, 6, or 15 mg to achieve equivalent surface area application rates of 2, 4, or 10 kg/ha, respectively. The 3 ml acetone stock solution is added to 30 ml of water, and 5 ml of that solution is used to drench each of 6 replicate test pots prepared as described above. The treated pots containing nematodes are incubated in the laboratory at ambient temperature of approximately 25° C. After 3 days the soil from each pot is washed onto a modified Baermann apparatus comprised of a screen supporting a layer of filter paper on which the soil sample is placed and set in a dish of water. The samples are then incubated at 25° C. for 24 hours to allow the live nematodes to migrate through the paper and screen and into a water reservoir to be collected for counting with a light microscope. Nematodes that have been killed or immobilized by the test compounds are not able to migrate into the reservoir.

Meloidogyne incognita = test: Summer field evaluation of pre-plant incorporated compounds on squash; format: in vivo
Procedure, shortened: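 PPI simulation: compound in acetone/Triton X-100 and water mixed into 80% sand/20% silt loam with chopped galled tomato roots, filling top 15 cm of 6 replicate field plots. M. incognita eggs/larvae (100 k per plot) injected 5 cm deep; three-week-old squash cv. Liberator III planted 4 days after treatment.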

[5] = test system: Caenorhabditis elegans ced-3(n717) and ced-4(N1162) mutants; test: Susceptibility of apoptosis-defective C. elegans mutants on NGM agar plates; format: in vivo; details: 10 μg/ml on NGM agar plates
mice = details: cited from earlier work

c1ccc(-c2noc(-c3cccs3)n2)cc1 [compound 1822]
mortality, signs of gross toxicity and behavioral changes ([1]; 50 mg/kg oral): all animals survived, gained body weight, and appeared active and healthy
mortality, signs of gross toxicity and behavioral changes ([1]; 500 mg/kg oral): all animals died within three days
induction of caspase-3 (apoptosis marker) [2]: no induction of caspase-3
percent control (galling reduction) relative to the control blank treatment [3]: 76%

Brc1ccc(-c2cnc(-c3cccs3)o2)cc1 [compound 4776]
mortality, signs of gross toxicity and behavioral changes ([1]; 500 mg/kg oral): two animals died within three days
oral toxicity ([1]; mice, oral, estimate based on the 50 and 500 mg/kg studies): lower than 500 mg/kg
percent control (galling reduction) relative to the control blank treatment [3]: 58%
Number of nematodes recovered from treated soil after 3 days incubation with the compound ([4]; 2 kg/ha): 16
Number of nematodes recovered from treated soil after 3 days incubation with the compound ([4]; 4 kg/ha): 19
Number of nematodes recovered from treated soil after 3 days incubation with the compound ([4]; 10 kg/ha): 20

Cc1cc(Cl)ccc1-c1noc(-c2ccco2)n1 [compound 5823]
0-3 vigor 16 DAP (Meloidogyne incognita; 4 kg (kg/ha) PPI, squash): 3.0
0-3 vigor 21 DAP (Meloidogyne incognita; 4 kg (kg/ha) PPI, squash): 3.0
feeder root (3 = ave) 31 DAP (Meloidogyne incognita; 4 kg (kg/ha) PPI, squash): 2.7
gall % 31 DAP (Meloidogyne incognita; 4 kg (kg/ha) PPI, squash): 3%
root wgt (g) 31 DAP (Meloidogyne incognita; 4 kg (kg/ha) PPI, squash): 22.6 g
top wgt (lbs) 31 DAP (Meloidogyne incognita; 4 kg (kg/ha) PPI, squash): 1.45 lbs
total fruit (lbs) (Meloidogyne incognita; 4 kg (kg/ha) PPI, squash): 1.44 lbs
control of M. incognita (in words) (Meloidogyne incognita; PPI application at 4 kg/ha): excellent control
difference in susceptibility between wild-type (N2 Bristol) and ced-3 and ced-4 mutants, including time to mortality [5]: No observable phenotypic difference in susceptibility
induction of caspase-3 (apoptosis marker) [2]: no induction of caspase-3

CCOP(=O)(NC(C)C)Oc1ccc(SC)c(C)c1 (stereo not shown) [Fenamiphos, fenamiphos, reference compound]
oral LD50 in mice (mice): 22.7 mg/kg
Number of nematodes recovered from treated soil after 3 days incubation with the compound ([4]; Other: 11.1 kg fenamiphos as positive control): 20
